These results are taken from US7547783B2, “Transition metal complexes” (Shell Oil Company, priority 2004, dated 2009).

The structures appear in SMILES notation. Where two headings read alike, the source gives them in different places.

The data set can be described thus: physchem. The settings on record: for solubility at 24 h: 20 °C, organic solvent or mixture, thermodynamic from solid. As to the method:
The practical solubility of the transition metal complexes was determined at ambient temperature in the inert atmosphere of the dry box.
1 mg of solid complex was contacted with 0.5 ml of benzene-D6 in an NMR-tube (5 mm external diameter) and gently swirled.

For orientation: solubility means the concentration that dissolves in the medium under given conditions. As for `CC1=[N+](c2cc(C(C)(C)C)cc(C(C)(C)C)c2)[Fe]2([Cl])([Cl])[N+](c3c(C)cc(C)cc3C)=C(C)c3cccc1[n+]32` [Example 2, 2-[1-(2,4,6-trimethylphenylimino)ethyl]-6-[1-(3,5-di-tert-butylphenylimino)ethyl]pyridine iron[II] chloride complex, reference compound], the solubility at 24 h is less than 1 mg/mL.
On the same count and under the same terms, with `CCCCCCCCCCCCCCCCCCCCOc1c(-c2ccccc2)cc([N+]2=C(C)c3cccc4[n+]3[Fe]2([Cl])([Cl])[N+](c2c(C)cc(C)cc2C)=C4C)cc1-c1ccccc1` [Example 3, 2-[1-(2,4,6-trimethylphenylimino)ethyl]-6-[1-(4-eicosanoxy-3,5-diphenylphenylimino)ethyl]pyridine iron[II] dichloride complex] the figure was roughly 50 mg/mL; with `CCCCCCCCCCCCCCCCCCCCOc1c(-c2ccccc2)cc([N+]2=C(C)c3cccc4[n+]3[Co]2([Cl])([Cl])[N+](c2c(C)cc(C)cc2C)=C4C)cc1-c1ccccc1` [Example 4, 2-[1-(2,4,6-trimethylphenylimino)ethyl]-6-[1-(4-eicosanoxy-3,5-diphenylphenylimino)ethyl]pyridine cobalt[II] dichloride complex], 50 mg/mL.
With `CCCCCCCCCCCCCCCCCCCCOc1c(-c2ccccc2)cc(N=C(C)c2cccc(C(C)=Nc3c(C)cc(C)cc3C)n2)cc1-c1ccccc1.FC(F)(F)c1cc([B-](c2cc(C(F)(F)F)cc(C(F)(F)F)c2)(c2cc(C(F)(F)F)cc(C(F)(F)F)c2)c2cc(C(F)(F)F)cc(C(F)(F)F)c2)cc(C(F)(F)F)c1.[Cl][Co+]` [Example 5, 2-[1-(2,4,6-trimethylphenylimino)ethyl]-6-[1-(4-eicosanoxy-3,5-diphenylphenylimino)ethyl]pyridine cobalt[II] chloride tetrakis[3,5-bis[trifluoromethyl)phenyl]borate], the “solubility in toluene or benzene-D6” value (at 20° C.) is listed as “ca. 10 mg/ml”.
On to `CCCCCCCCCCCCCCCCCCCCOc1c(-c2ccccc2)cc(N=C(C)c2cccc(C(C)=Nc3c(C)cc(C)cc3C)n2)cc1-c1ccccc1.[Cl-].[Cl-].[Cl-].[Cr+3]` [Example 6, 2-[1-(2,4,6-trimethylphenylimino)ethyl]-6-[1-(4-eicosanoxy-3,5-diphenylphenylimino)ethyl]pyridine chromium[III] trichloride complex], for which the “solubility in toluene or benzene-D6” value (at 20° C.) is “ca. 1 mg/ml”.
For the compound `CCCCCCCCCCCCCCCCCCCCOc1c(-c2ccccc2)cc([N+]2=C(C)c3cccc4[n+]3[Fe]2([Cl])([Cl])[N+](c2cc(-c3ccccc3)c(OCCCCCCCCCCCCCCCCCCCC)c(-c3ccccc3)c2)=C4C)cc1-c1ccccc1` [Example 7, 2,6-bis[1-(4-eicosanoxy-3,5-diphenylphenylimino)ethyl]pyridine iron [II] dichloride complex], the solubility at 24 h is roughly 100 mg/mL.
In the case of `CCCCCCCCCCCCCCCCCCCCOc1c(-c2ccccc2)cc([N+]2=C(C)c3cccc4[n+]3[Co]2([Cl])([Cl])[N+](c2cc(-c3ccccc3)c(OCCCCCCCCCCCCCCCCCCCC)c(-c3ccccc3)c2)=C4C)cc1-c1ccccc1` [Example 8, 2,6-bis[1-(4-eicosanoxy-3,5-diphenylphenylimino)ethyl]pyridine cobalt[II] dichloride complex], the solubility at 24 h was roughly 100 mg/mL.
`CCCCCCCCCCCCCCCCCCCCOc1c(-c2ccccc2)cc(N=C(C)c2cccc(C(C)=Nc3cc(-c4ccccc4)c(OCCCCCCCCCCCCCCCCCCCC)c(-c4ccccc4)c3)n2)cc1-c1ccccc1.[Cl-].[Cl-].[Cl-].[Cr+3]` [Example 9, 2,6-bis[1-(4-eicosanoxy-3,5-diphenylphenylimino)ethyl]pyridine chromium[III] trichloride complex]: the “solubility in toluene or benzene-D6” value is recorded as “ca. 50 mg/ml”.
Regarding `CCCCCCCCCCCCCCCCCCCCOc1c(-c2ccccc2)cc([N+]2=C(C)c3cccc4[n+]3[Co]2([Cl])([Cl])[N+](c2ccccc2C(C)(C)C)=C4C)cc1-c1ccccc1` [Example 10, 2-[1-(2-tert-butylphenylimino)ethyl]-6-[1-(4-eicosanoxy-3,5-diphenylphenylimino)ethyl]pyridine cobalt[II] chloride complex], the solubility at 24 h is roughly 50 mg/mL.
As for `CCCCCCCCCCCCCCCCCCCCOc1ccc([N+]2=C(C)c3cccc4[n+]3[Fe]2([Cl])([Cl])[N+](c2ccc(OCCCCCCCCCCCCCCCCCCCC)cc2C)=C4C)c(C)c1` [Example 11, 2,6-bis[1-(4-eicosanoxy-2-methylphenylimino)ethyl]pyridine iron[II] chloride complex, reference compound], the solubility at 24 h was less than 1 mg/mL.
As for `CCCCCCCCCCCCCCCCCCCCOc1cc(C)c([N+]2=C(C)c3cccc4[n+]3[Fe]2([Cl])([Cl])[N+](c2cc(C(C)C)c(OCCCCCCCCCCCCCCCCCCCC)cc2C)=C4C)cc1C(C)C` [Example 12, 2,6-bis[1-(2-methyl-4-eicosanoxy-5-isopropylphenylimino)ethyl]pyridine iron (II) dichloride], the “solubility in C6D6 (in words)” value is recorded as “soluble” and the solubility at 24 h was roughly 10 mg/mL.
Take `CCCOc1c(-c2ccccc2)cc([N+]2=C(C)c3cccc4[n+]3[Co]2([Cl])([Cl])[N+](c2c(C)cc(C)cc2C)=C4C)cc1-c1ccccc1` [Example 13, 2-[1-(2,4,6-trimethylphenylimino)ethyl]-6-[1-(4-propoxy-3,5-diphenylphenylimino)ethyl]pyridine cobalt[II] chloride complex, reference compound]: the solubility at 24 h was less than 1 mg/mL.
Still for that read-out and setting: with `CC1=[N+](c2cc(-c3ccccc3)c(O)c(-c3ccccc3)c2)[Fe]2([Cl])([Cl])[N+](c3c(C)cc(C)cc3C)=C(C)c3cccc1[n+]32` [Example 14, 2-[1-(2,4,6-trimethylphenylimino)ethyl]-6-[1-(4-hydroxy-3,5-diphenylphenylimino)ethyl]pyridine iron (II) dichloride, reference compound] the figure was less than 1 mg/mL.
